Measurements from patent publication US4221909A, “P-Acetamidobenzoic acid salts of 9-(hydroxyalkyl) purines” (Sloan-Kettering Institute for Cancer Research, priority 1978, dated 1980).
≈ marks a conversion by molar mass, not a printed value.

How the values were obtained:
spleen cells [1] = assay: In vivo treatment of mice: effect on in vitro stimulation of spleen cell proliferation by Con A; design: species or system mice (Balb/C); conditions: oral, twice daily for 1 day; for response of spleen cells to Con A versus placebo: Con A 10 μg/ml; for subsequent response of the spleen cells, in vitro, to Con A stimulation: suboptimal Con A 5 μg/ml
Procedure: (§1) The purpose of this study was to determine the effects of in vivo treatment of mice with the compounds NPT 15392 and 15410 on the subsequent activity of spleen cells isolated from these animals and evaluated in vitro for their proliferative response to the mitogen, Concanavalin A (Con A).
Nine male Balb/C mice, 8-9 weeks old, weighing 18-20 gms were divided into three groups. One group was treated twice daily (for 1 day), in the morning and afternoon, with an oral dose of NPT 15392 at 10 mg/kg. The second group was similarly treated with NPT 15410 at 20 mg/kg. A third group, dosed with saline served as a placebo control.
(§2) The following day, each group was sacrificed and the spleens removed and pooled. The spleens were minced and the cells washed in RPMI-1640 medium (Grand Island Biologicals) supplemental with 2 mm glutamine and antibiotics. The cell concentration of each preparation was determined by a Coulter counter and adjusted to 5×10^6 cells/ml with RPMI medium.
(§3) Microtiter assays were carried out in 0.2 ml incubations, containing 5×10^5 cells and Con A or Con A and compounds at the indicated concentrations. All assays were performed with 6 replicates and compared with a blank assay containing only cells. The assay plates were incubated at 37° in 5% CO2 for 4 days. During the final 18-20 hours of incubation, 0.5 ml of ^3 HTdR (10 μCi/ml, 6 Ci /m mole) were added to each culture. The cultures were harvested with a multiple automatic sample harvester (MASH) unit and the incorporated ^3 HTdR determined with a Beckman LS 8000 liquid scintillation counter, as a measure of cell proliferation. The results are tabulated as the ratio of the activity in the Con A or Con A and compound treated cultures to the blank cultures.

spleen cells [2] = assay: In vitro treatment of Con A stimulated spleen cells; assay type: cell-based, mice (Balb/C); conditions: compound 1 μg/ml; suboptimal Con A 5 μg/ml
Excerpt: as §1, §2
as §3, with “cultures. […]” for “cultures.”

[3] = test system: guinea pig peritoneal macrophages; assay: Lymphokine Induced (MMF) Guinea Pig Macrophage Proliferation; assay type: cell-based
Excerpt: The following three assay procedures are used to evaluate the ability of the test substances to modulate the activity of several classes of cells in the immune system. In these systems it is possible to identify both immunopotentiating activity (evidence by an enhancement of the parameter examined) as well as immunosuppressant activity (evidenced by an inhibition of the parameter examined).
3. The macrophage represents a subpopulation of white blood cells which is an important component of the immune system in control of both cellular and humoral immunity. The assay system described below evaluates the substances studied as potentiators of macrophage function.
Phytohemagglutinin(PHA) (HA-17) was purchased from Burroughs Wellcome. A preparation containing Macrophage Mitogen Factor (MMF) and Macrophage Activating Factor (MAF) was prepared from antigen-stimulated immune lymph node lymphocytes (guinea pig) as previously described by Hadden et al, Nature 257, 483-485 (1975). […] The active fraction was employed in both the proliferation and activation assays.
Ficoll-hypaque purified human peripheral blood lymphocytes were prepared and PHA-induced lymphocyte proliferation was assayed by the incorporation of tritiated thymidine as described in Hadden et al, Cell. Immunol. 20, 98-103 (1975). Each compound was analyzed in the presence of suboptimal, optimal and supraoptimal concentrations of PHA (0.001, 0.01, 0.1 units/ml respectively). Paraffin oil-induced guinea pig peritoneal macrophages were prepared and incubated as monolayer culture (>98% pure macrophages). Lymphokine (MMF)-induced proliferation was assayed by the incorporation of triturated thymidine at 3 and 5 days of culture as described, Hadden et al, Nature 257, 483-485 (1975). Lymphokine (MAF)-induced macrophage activation to kill Listeria monocytogenes following 5 days of culture in the presence or absence of MAF was performed during a 6 hour period as described in Hadden and England, Immunopharmacology, pages 87-100 (Plenum Press, 1977). Phagocytosis was quantitated during a 20-minute exposure to Listeria monocytogenes by counting the number of macrophages containing bacteria and the number of bacteria per phagocytic cell on gram stained monolayers in Labtek chambers. Intracellular killing of bacteria was evaluated by counting the number of cells containing bacteria and the number of bacteria/cell 6 hours after the initial 20 minute exposure. Parallel experiments in which macrophages were lysed and intracellular bacteria were cultured confirm the validity of bacterial activity determined by this manner in this sytem. The drugs were employed in each of the three systems over serial log concentration range in triplicate in the presence and absence of mitogen or lymphokine. Each type of experiment was performed at least three times. Previous experiments indicate a parallelism of response to pharmacologic modulation in the proliferation and activation assays.

[4] = test system: human peripheral blood lymphocytes; assay: Mitogen Induced (PHA) Human Lymphocyte Proliferation; assay type: cell-based
L-1210 cells = assay: Anti-Leukemic Activity (Inhibition of L-1210 Growth); assay type: cell-based, mouse
Procedure: Leukemic cells isolated from mice bearing the L-1210 tumor are cultured in vitro and their growth can be measured by counting the number of cells in the culture over a period of time. The incorporation of a test substance into the media will prevent the growth of the leukemic cells, an indication of an effective anti-leukemic agent.
Check to see that there is adequate cell growth in the stock cultures. Use cells 48-72 hours after transfers are done.
Weigh out the drugs at 50 times the desired final concentration and made serial dilutions.
Make up the final medium using 500 mls McCoy's 5A medium, 15% fetal calf serum, 5 mls penicillin-streptomycin solution, and 5 mls antibiotic-antimycotic solution and let it stand at room temperature.
Using sterile technique, add 0.1 ml of the drug dilutions to each tube.
Add an appropriate quantity of cells to the prepared medium. After mixing, remove a 0.5 ml sample, place it in a vial containing […] of saline, and count it on the Coulter Counter. Multiply the count by 40 to compensate for the 40 fold dilution (0.5 ml into […] and record the inoculum.
Add 5 mls of cell suspension to each tube. Swirl the bottle every 4 tubes to insure a more uniform distribution of cells.
Tighten the caps and place in the CO2 incubator at 36°-38° for 96 hours. […]

SMILES	response of spleen cells to Con A versus placebo (spleen cells [1])	subsequent response of the spleen cells, in vitro, to Con A stimulation (spleen cells [1])	augmentation of Con A stimulation (spleen cells [2])	Maximum Percent Change, Lymphokine Induced (MMF) Guinea Pig Mac. Prolif. ([3]; 1.0-10)	Maximum Percent Change, Lymphokine Induced (MMF) Guinea Pig Mac. Prolif. ([3]; .01-1.0)	Maximum Percent Change, Mitogen Induced (PHA) Human Lymph. Prolif. ([4]; 1.0-10)	Maximum Percent Change, Mitogen Induced (PHA) Human Lymph. Prolif. ([4]; .01-1.0)	DIP.PAcBA potentiation of Anti-Leukemia activity (L-1210 cells; DIP.PAcBA salt vs parent compound)	Maximum Percent Change, Lymphokine Induced (MMF) Guinea Pig Mac. Prolif. ([3]; 1.0-10, listed as 15417)	Maximum Percent Change, Lymphokine Induced (MMF) Guinea Pig Mac. Prolif. ([3]; 10-100)	Maximum Percent Change, Mitogen Induced (PHA) Human Lymph. Prolif. ([4]; 10-100)	IC50 (L-1210 cells; Mus musculus, L1210, 96 h, 96 hours, text: μg/ml, read-out: I50 (concentration of drug inhibiting growth of L-1210))	Maximum Percent Change, Lymphokine Induced (MMF) Guinea Pig Mac. Prolif. ([3]; 1.0-10, listed as 15418)
CCCCCC[C@H]([C@H](C)O)n1cnc2c(=O)[nH]cnc21 (relative stereo) [NPT 15392, Erythro-9-(2-Hydroxy-3-Nonyl)Hypoxanthine]	No significant differences	increases the subsequent response of the spleen cells	marked ability to augment the Con A stimulation	–	–	–	–	–	–	–	–	–	–
CCCCCC[C@H]([C@H](C)O)n1cnc2c(=O)[nH]cnc21 (relative stereo) [NPT 15410]	No significant differences	increases the subsequent response of the spleen cells	marked ability to augment the Con A stimulation	23%	12%	60%	30-50%	Yes	–	–	–	–	–
CCCCCCC(CO)n1cnc2c(=O)[nH]cnc21 (centres unmarked) [NPT 15417]	–	–	–	–	–	0%	0%	–	13%	-50%	-50%	47 µg/mL (≈ 178 µM)	–
CCCCCCC(CO)n1cnc2c(=O)[nH]cnc21 (centres unmarked) [NPT 15418]	–	–	–	–	12%	–	–	–	–	-50%	–	–	80%
